According to the kinase profiling compilation of Christmann-Franck et al. (2016):
“And” between values parts separate entries of the source, which are not always exact repeats. Equal values may be shown once.

Tests used:
Experiment in all cases: radiometric filter-binding kinase assay, Kinase HotSpot
Conditions in all cases: compound 0.5 µM; ATP 10 µM
[1] = target: TBK1 (human) (UniProt Q9UHD2)
[2] = target: HIPK1 (human) (UniProt Q86Z02)
[3] = target: PRKD2 (human) (UniProt Q9BZL6)
[4] = target: CAMK1G (human) (UniProt Q96NX5)
[5] = target: CSNK1A1 (human) (UniProt P48729)
[6] = target: RPS6KA1 KD1 KD2 (human) (UniProt Q15418)
[7] = target: BRSK2 (human) (UniProt Q8IWQ3)
[8] = target: NEK11 (human) (UniProt Q8NG66)
[9] = target: NEK7 (human) (UniProt Q8TDX7)
[10] = target: FGFR3 (human) (UniProt P22607)
[11] = target: MINK1 (human) (UniProt Q8N4C8)
[12] = target: HCK (human) (UniProt P08631)
[13] = target: CAMK1D (human) (UniProt Q8IU85)
[14] = target: PDGFRA (human) (UniProt P16234)
[15] = target: MET (human) (UniProt P08581)
[16] = target: DYRK1B (human) (UniProt Q9Y463)
[17] = target: EPHA2 (human) (UniProt P29317)
[18] = target: MAPK8 (human) (UniProt P45983)
[19] = target: EPHB3 (human) (UniProt P54753)
[20] = target: MST4 (human) (UniProt Q9P289)
[21] = target: NTRK3 (human) (UniProt Q16288)
[22] = target: MAP3K3 (human) (UniProt Q99759)
[23] = target: SRPK3 (human) (UniProt Q9UPE1)
[24] = target: NTRK1 (human) (UniProt P04629)
[25] = target: NLK (human) (UniProt Q9UBE8)
[26] = target: MAPK12 (human) (UniProt P53778)
[27] = target: ACVR1 (human) (UniProt Q04771)
[28] = target: RPS6KB1 (human) (UniProt P23443)
[29] = target: DDR2 (human) (UniProt Q16832)
[30] = target: SLK (human) (UniProt Q9H2G2)
[31] = target: PRKD1 (human) (UniProt Q15139)
[32] = target: CAMK2G (human) (UniProt Q13555)
[33] = target: MARK3 (human) (UniProt P27448)
[34] = target: NEK1 (human) (UniProt Q96PY6)
[35] = target: DYRK2 (human) (UniProt Q92630)
[36] = target: PRKG1 (human) (UniProt Q13976)
[37] = target: JAK3 JH1 JH2 (human) (UniProt P52333)
[38] = target: MAPKAPK5 (human) (UniProt Q8IW41)
[39] = target: GRK4 (human) (UniProt P32298)
[40] = target: PNCK (human) (UniProt Q6P2M8)
[41] = target: PRKCZ (human) (UniProt Q05513)
[42] = target: PTK2 (human) (UniProt Q05397)

Sequence of PRKG1 (human) (Q13976 whole entry, looked up): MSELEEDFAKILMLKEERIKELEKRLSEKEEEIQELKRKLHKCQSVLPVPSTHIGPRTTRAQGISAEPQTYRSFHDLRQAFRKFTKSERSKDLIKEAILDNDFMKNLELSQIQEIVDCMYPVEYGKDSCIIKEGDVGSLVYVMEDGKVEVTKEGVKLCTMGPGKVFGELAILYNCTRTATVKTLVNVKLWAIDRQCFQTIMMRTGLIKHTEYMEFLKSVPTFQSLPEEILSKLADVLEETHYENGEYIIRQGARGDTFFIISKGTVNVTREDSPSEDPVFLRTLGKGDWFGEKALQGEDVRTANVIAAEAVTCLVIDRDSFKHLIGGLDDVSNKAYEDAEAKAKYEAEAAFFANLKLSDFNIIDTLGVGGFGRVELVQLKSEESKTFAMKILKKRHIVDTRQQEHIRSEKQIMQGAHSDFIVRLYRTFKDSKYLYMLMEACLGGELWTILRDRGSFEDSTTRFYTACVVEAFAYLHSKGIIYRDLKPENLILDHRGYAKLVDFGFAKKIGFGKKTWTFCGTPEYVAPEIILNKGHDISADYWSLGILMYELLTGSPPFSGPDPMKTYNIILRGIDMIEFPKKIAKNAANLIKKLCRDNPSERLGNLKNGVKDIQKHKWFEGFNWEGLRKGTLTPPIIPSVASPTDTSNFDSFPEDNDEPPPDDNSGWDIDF
Sequence of DDR2 (human) (Q16832 whole entry, looked up): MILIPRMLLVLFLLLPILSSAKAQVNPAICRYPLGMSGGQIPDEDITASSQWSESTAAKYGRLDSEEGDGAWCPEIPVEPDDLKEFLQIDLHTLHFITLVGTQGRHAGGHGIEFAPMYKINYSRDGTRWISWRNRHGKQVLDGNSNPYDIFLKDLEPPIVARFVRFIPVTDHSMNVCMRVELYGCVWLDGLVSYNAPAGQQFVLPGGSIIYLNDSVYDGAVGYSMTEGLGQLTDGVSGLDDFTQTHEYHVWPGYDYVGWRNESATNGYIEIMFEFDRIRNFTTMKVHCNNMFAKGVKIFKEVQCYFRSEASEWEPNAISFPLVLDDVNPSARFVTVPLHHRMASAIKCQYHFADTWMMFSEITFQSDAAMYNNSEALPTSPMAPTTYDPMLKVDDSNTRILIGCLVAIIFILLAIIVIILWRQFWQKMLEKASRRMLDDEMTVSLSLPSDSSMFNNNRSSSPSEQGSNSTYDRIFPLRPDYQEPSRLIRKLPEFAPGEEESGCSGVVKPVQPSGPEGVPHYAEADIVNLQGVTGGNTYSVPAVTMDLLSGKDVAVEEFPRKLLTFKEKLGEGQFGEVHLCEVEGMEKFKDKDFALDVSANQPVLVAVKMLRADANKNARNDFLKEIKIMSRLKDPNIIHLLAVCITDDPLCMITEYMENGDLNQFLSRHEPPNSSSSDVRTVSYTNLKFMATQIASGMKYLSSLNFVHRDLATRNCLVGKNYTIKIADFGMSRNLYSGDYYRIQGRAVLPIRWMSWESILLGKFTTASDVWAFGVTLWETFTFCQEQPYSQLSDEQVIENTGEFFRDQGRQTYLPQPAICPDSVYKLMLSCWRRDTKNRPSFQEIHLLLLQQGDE
Sequence of CAMK2G (human) (Q13555 whole entry, looked up): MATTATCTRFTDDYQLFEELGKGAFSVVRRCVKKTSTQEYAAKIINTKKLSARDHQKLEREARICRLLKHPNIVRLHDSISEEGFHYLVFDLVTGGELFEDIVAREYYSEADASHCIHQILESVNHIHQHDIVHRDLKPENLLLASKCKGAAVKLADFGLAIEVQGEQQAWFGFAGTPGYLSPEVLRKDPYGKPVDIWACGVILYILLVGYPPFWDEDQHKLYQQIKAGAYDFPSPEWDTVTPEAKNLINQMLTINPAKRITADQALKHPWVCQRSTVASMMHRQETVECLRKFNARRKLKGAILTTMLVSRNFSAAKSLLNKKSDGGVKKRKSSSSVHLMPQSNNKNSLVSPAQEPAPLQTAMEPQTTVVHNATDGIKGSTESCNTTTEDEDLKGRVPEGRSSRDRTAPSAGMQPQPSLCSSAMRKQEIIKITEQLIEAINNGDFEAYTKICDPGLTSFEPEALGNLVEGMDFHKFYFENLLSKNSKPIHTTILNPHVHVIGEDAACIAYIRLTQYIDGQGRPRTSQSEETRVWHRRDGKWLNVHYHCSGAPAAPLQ
Sequence of TBK1 (human) (Q9UHD2 whole entry, looked up): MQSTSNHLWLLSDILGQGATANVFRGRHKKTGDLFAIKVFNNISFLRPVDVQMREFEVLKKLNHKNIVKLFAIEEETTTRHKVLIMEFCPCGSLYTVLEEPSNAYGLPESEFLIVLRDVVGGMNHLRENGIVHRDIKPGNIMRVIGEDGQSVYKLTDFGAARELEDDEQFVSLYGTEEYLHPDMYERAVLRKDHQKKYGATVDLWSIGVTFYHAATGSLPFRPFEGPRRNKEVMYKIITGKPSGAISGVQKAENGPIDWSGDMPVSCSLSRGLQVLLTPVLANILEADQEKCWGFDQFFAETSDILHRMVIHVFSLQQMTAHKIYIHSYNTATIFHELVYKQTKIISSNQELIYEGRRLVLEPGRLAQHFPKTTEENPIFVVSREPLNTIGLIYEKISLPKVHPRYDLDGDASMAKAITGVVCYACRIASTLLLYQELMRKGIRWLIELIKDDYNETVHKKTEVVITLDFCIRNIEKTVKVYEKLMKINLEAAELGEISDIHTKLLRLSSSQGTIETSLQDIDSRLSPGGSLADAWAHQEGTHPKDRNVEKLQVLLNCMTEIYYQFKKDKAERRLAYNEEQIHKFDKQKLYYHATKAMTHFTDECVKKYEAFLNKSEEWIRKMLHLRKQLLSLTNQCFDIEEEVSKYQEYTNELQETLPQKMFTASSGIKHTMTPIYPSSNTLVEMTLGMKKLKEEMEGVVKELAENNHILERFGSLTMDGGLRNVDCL
Sequence of MET (human) (P08581 whole entry, looked up): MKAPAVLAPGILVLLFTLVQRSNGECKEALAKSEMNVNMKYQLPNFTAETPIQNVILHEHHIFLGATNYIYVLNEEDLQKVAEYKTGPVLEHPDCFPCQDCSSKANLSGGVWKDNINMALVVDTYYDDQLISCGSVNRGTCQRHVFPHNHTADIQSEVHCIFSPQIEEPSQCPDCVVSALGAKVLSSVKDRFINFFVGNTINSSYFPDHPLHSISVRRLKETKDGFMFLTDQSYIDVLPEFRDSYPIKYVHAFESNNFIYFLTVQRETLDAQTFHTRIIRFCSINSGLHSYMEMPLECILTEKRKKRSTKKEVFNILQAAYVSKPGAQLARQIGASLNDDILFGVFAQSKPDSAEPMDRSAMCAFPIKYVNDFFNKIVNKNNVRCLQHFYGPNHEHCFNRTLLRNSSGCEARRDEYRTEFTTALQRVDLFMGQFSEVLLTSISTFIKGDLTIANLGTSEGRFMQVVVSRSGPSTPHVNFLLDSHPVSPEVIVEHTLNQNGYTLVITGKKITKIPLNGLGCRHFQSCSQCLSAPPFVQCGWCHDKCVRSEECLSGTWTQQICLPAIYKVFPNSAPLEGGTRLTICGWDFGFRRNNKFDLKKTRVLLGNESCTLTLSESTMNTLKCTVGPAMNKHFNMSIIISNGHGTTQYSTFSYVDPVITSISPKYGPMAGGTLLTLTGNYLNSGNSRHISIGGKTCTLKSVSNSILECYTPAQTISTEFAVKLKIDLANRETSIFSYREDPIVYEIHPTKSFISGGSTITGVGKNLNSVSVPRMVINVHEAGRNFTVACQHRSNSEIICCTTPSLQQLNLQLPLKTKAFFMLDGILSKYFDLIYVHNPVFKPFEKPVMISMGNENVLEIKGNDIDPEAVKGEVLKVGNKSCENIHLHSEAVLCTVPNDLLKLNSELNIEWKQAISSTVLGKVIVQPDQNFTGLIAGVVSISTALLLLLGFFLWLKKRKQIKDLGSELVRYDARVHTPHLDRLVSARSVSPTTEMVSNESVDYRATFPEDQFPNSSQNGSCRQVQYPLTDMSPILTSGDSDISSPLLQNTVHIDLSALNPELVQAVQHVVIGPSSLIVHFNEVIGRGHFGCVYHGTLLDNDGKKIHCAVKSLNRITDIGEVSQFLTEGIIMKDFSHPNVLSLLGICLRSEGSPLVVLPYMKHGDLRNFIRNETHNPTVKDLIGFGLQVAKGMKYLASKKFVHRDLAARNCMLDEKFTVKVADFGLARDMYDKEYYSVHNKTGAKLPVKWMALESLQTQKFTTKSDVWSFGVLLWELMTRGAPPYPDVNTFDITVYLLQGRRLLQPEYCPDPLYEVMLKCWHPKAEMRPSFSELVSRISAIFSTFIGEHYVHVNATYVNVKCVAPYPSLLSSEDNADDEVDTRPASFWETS
Sequence of MAP3K3 (human) (Q99759 whole entry, looked up): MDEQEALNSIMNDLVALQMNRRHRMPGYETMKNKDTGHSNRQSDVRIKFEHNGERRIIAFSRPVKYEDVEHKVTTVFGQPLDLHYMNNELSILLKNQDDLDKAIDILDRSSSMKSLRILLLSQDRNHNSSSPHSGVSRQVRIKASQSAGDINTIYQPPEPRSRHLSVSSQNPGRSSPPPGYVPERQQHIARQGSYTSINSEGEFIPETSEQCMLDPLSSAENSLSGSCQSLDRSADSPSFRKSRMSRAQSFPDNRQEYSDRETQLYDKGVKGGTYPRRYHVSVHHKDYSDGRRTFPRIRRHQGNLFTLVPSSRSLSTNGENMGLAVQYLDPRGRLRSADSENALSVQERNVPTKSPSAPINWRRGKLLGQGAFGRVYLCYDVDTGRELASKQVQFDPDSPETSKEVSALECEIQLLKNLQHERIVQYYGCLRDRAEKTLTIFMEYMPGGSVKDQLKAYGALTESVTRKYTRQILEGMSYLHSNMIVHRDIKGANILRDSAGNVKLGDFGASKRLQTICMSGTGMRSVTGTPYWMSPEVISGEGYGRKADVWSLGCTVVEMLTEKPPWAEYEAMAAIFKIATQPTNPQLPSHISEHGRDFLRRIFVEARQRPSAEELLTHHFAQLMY

Molecule COc1cc2ncnc(Nc3ccc(OCc4ccccc4)cc3)c2cc1OC has a residual activity [1] of 101%, a residual activity [2] of 104% and a residual activity [3] of 101%. It also gave a residual activity [4] of 97.1%, a residual activity [5] of 105% and a residual activity [6] of 90.2%. The residual activity [7] was 98.7%, the residual activity [8] was 90.4% and the residual activity [9] was 101%. It also gave a residual activity [10] of 102%, a residual activity [11] of 94.3% and a residual activity [12] of 74.5%. The residual activity [13] was 104%, the residual activity [14] was 91.3% and the residual activity [15] was 98.9%. The residual activity [16] was 104%, the residual activity [17] was 106% and the residual activity [18] was 102%. It also gave a residual activity [19] of 90%, a residual activity [20] of 91.6% and a residual activity [21] of 93.8%. It also gave a residual activity [22] of 88.7%, a residual activity [23] of 92.8% and a residual activity [24] of 97.1%. For the same molecule, the residual activity [25] was 96.5%, the residual activity [26] was 102% and the residual activity [27] was 101%. It also gave a residual activity [28] of 95.1%, a residual activity [29] of 100% and a residual activity [30] of 76.4%. The residual activity [31] was 101%, the residual activity [32] was 94.2% and the residual activity [33] was 106%. The residual activity [34] was 104%, the residual activity [35] was 111% and the residual activity [36] was 90.3% and 99.3%. For the same molecule, the residual activity [37] was 108%, the residual activity [38] was 100% and the residual activity [39] was 106%. For the same molecule, the residual activity [40] was 99%, the residual activity [41] was 113% and the residual activity [42] was 105%.
Molecule Ic1cccc(CSc2nnc(-c3ccncc3)o2)c1 has a residual activity [1] of 103%, a residual activity [2] of 105% and a residual activity [3] of 97.1%. It also gave a residual activity [4] of 95.9%, a residual activity [5] of 97% and a residual activity [6] of 98.6%. It also gave a residual activity [7] of 99.3%, a residual activity [8] of 113% and a residual activity [9] of 102%. The residual activity [10] was 106%, the residual activity [11] was 90.2% and the residual activity [12] was 104%. For the same molecule, the residual activity [13] was 101%, the residual activity [14] was 90.1% and the residual activity [15] was 88.7%. For the same molecule, the residual activity [16] was 96.7%, the residual activity [17] was 102% and the residual activity [18] was 84.7%. For the same molecule, the residual activity [19] was 99.7%, the residual activity [20] was 103% and the residual activity [21] was 104%. It also gave a residual activity [22] of 89.6%, a residual activity [23] of 101% and a residual activity [24] of 96%. It also gave a residual activity [25] of 107%, a residual activity [26] of 93% and a residual activity [27] of 97.4%. For the same molecule, the residual activity [28] was 100%, the residual activity [29] was 103% and the residual activity [30] was 98.6%. It also gave a residual activity [31] of 97.6%, a residual activity [32] of 96.8% and a residual activity [33] of 124%. For the same molecule, the residual activity [34] was 95.5%, the residual activity [35] was 96.8% and the residual activity [36] was 92.1% and 95.5%. The residual activity [37] was 106%, the residual activity [38] was 83.6% and the residual activity [39] was 99.9%. It also gave a residual activity [40] of 101%, a residual activity [41] of 96.1% and a residual activity [42] of 106%.
